Measured values published in patent publication EP4745137A1 (Gluetacs Therapeutics (Shanghai) Co., Ltd., priority 2023, dated 2025).

How the values were obtained:
CK1α = biological target: T1, CK1α (Homo sapiens, UniProt P48729+Q96SW2); test: Western-blot assay of substrate protein degradation in hPBMCs, CK1α; type: cell-based; details: 24 hours of compound treatment, compounds tested at 50 nM and 500 nM (concentration of the table not stated)
T1 construct: endogenous in cells; host or cells: hPBMCs (Milecell Biotechnologies)
T1 sequence (P48729 whole entry): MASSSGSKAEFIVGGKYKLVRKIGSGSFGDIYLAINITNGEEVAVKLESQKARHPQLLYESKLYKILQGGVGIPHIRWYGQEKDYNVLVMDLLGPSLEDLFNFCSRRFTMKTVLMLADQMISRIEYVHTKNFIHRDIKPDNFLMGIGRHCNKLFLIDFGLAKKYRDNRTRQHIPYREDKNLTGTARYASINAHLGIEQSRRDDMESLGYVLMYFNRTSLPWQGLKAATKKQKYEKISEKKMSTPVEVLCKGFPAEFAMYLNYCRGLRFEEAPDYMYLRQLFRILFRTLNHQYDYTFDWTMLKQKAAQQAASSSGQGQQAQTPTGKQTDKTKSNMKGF
T1 sequence (Q96SW2 whole entry): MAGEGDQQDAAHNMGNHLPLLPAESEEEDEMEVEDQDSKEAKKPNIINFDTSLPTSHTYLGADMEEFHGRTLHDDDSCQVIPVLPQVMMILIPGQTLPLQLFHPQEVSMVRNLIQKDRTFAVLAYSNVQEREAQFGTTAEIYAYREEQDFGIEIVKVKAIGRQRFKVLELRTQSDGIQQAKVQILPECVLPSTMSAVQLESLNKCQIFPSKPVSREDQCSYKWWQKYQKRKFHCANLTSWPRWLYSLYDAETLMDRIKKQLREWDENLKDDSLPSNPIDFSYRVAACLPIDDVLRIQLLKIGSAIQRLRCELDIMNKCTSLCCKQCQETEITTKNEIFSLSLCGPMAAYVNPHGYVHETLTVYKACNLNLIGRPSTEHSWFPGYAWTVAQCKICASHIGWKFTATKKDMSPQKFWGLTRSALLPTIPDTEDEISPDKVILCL
T1 sequence (Q16531 whole entry partner): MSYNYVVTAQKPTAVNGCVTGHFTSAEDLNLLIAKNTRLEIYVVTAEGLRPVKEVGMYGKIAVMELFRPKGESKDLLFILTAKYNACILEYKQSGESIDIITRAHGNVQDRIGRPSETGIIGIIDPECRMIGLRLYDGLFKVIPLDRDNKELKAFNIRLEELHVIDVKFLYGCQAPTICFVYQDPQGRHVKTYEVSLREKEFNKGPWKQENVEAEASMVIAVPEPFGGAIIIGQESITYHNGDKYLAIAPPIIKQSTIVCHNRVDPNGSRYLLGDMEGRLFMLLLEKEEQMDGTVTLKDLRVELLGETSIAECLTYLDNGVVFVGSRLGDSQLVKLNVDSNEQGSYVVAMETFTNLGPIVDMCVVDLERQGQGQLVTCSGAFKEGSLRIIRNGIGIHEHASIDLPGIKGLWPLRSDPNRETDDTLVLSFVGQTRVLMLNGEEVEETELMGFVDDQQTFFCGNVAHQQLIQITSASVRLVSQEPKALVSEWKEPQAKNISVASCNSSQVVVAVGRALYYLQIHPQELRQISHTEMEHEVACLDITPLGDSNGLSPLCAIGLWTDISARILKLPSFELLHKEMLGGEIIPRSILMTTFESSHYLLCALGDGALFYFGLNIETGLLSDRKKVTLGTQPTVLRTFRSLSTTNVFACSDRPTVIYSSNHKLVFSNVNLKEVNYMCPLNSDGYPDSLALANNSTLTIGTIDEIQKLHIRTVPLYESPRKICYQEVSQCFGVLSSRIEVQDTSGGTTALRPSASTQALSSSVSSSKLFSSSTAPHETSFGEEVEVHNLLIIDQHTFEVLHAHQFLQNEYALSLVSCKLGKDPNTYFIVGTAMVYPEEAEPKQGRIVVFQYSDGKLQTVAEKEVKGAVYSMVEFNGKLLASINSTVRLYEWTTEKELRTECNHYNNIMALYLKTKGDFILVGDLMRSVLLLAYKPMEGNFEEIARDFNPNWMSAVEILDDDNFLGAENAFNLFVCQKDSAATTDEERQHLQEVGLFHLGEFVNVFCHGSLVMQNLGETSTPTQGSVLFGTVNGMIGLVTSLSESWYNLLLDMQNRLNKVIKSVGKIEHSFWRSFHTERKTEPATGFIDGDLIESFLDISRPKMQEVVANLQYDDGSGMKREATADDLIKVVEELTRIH

IKZF1 = biological target: T2, IKZF1 (Homo sapiens, UniProt Q13422+Q96SW2); test: Western-blot assay of substrate protein degradation in hPBMCs, IKZF1; type: cell-based; details: 24 hours of compound treatment, compounds tested at 50 nM and 500 nM (concentration of the table not stated)
T2 construct: endogenous in cells; host or cells: hPBMCs (Milecell Biotechnologies)
T2 sequence (Q13422 whole entry): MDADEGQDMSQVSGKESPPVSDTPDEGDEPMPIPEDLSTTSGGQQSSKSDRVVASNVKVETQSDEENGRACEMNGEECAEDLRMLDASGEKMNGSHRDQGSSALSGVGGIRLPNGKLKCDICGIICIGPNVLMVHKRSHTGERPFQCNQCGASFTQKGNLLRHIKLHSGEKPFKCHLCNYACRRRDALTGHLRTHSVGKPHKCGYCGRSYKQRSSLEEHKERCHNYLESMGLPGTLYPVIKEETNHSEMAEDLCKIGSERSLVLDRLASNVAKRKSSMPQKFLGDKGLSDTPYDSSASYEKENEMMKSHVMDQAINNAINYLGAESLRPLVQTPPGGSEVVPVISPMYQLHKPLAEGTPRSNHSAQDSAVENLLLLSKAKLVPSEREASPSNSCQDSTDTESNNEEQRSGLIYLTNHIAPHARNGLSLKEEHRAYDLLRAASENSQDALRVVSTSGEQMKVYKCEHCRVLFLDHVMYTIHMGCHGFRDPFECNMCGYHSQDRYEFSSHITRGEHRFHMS
T2 sequence (Q96SW2 whole entry): as the sequence (Q96SW2 whole entry) above
T2 sequence (Q16531 whole entry partner): as the sequence (Q16531 whole entry partner) above

[1] = biological target: T3, human Cereblon WT GST-tagged protein (Homo sapiens, UniProt Q96SW2); test: CRBN-binding affinity by HTRF (CEREBLON BINDING kit); details: HTRF inhibitory activity, CEREBLON BINDING kit; read-out: HTRF IC50
T3 construct: purchased CISBIO 64BDCRBNPEH
T3 sequence (Q96SW2 whole entry): as the sequence (Q96SW2 whole entry) above
Procedure: The CEREBLON BINDING kits (specification: 10,000 tests; product number: Catalog # 64BDCRBNPEH; CISBIO company) was used to determine the CRBN binding ability of the compounds to be tested through a HTRF method (homogeneous time-resolved fluorescence). The specific methods are as follows: • 1. […] Specifically, diluent #9 (1X) solution was used as the diluent, and multiple concentration gradients were set. […] Then, 2.5 µL of human Cereblon WT GST-tagged protein solution was added to each well. Finally, 5 µL of the thoroughly mixed Thalidomide-Re reagent and GST Eu antibody working solution were added to each of the aforementioned wells. […] The blank control wells were sequentially added with 2.5 µL of diluent #9 (1X) solution, 2.5 µL of binding buffer, and 5 µL of thoroughly mixed Thalidomide-Re reagent and GST Eu antibody working solution. • 4.

WEE1 = biological target: T4, WEE1 (Homo sapiens, UniProt P30291+Q96SW2); test: Western-blot assay of substrate protein degradation in hPBMCs, WEE1; type: cell-based; details: 24 hours of compound treatment, compounds tested at 50 nM and 500 nM (concentration of the table not stated)
T4 construct: endogenous in cells; host or cells: hPBMCs (Milecell Biotechnologies)

IKZF2 = biological target: T5, IKZF2 (Homo sapiens, UniProt Q96SW2+Q9UKS7); test: Western-blot assay of substrate protein degradation in hPBMCs, IKZF2; type: cell-based; details: 24 hours of compound treatment, compounds tested at 50 nM and 500 nM (concentration of the table not stated)
T5 construct: endogenous in cells; host or cells: hPBMCs (Milecell Biotechnologies)
T5 sequence (Q9UKS7 whole entry): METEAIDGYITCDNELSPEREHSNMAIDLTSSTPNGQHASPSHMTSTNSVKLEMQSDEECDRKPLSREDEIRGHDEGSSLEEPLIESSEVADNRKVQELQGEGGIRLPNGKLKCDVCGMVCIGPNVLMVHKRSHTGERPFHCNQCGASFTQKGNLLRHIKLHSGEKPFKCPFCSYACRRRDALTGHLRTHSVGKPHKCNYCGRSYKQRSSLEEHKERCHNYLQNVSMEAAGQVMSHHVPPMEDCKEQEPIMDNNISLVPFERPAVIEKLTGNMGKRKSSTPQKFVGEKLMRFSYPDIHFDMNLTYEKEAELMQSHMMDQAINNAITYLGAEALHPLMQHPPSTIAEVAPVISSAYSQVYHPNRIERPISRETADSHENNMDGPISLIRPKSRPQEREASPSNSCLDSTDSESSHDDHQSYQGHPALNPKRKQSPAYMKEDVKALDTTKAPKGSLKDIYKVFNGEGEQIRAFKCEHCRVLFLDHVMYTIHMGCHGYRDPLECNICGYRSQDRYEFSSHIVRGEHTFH
T5 sequence (Q96SW2 whole entry): as the sequence (Q96SW2 whole entry) above
T5 sequence (Q16531 whole entry partner): as the sequence (Q16531 whole entry partner) above

IKZF3 = biological target: T6, IKZF3 (Homo sapiens, UniProt Q96SW2+Q9UKT9); test: Western-blot assay of substrate protein degradation in hPBMCs, IKZF3; type: cell-based; details: 24 hours of compound treatment, compounds tested at 50 nM and 500 nM (concentration of the table not stated)
T6 construct: endogenous in cells; host or cells: hPBMCs (Milecell Biotechnologies)
T6 sequence (Q9UKT9 whole entry): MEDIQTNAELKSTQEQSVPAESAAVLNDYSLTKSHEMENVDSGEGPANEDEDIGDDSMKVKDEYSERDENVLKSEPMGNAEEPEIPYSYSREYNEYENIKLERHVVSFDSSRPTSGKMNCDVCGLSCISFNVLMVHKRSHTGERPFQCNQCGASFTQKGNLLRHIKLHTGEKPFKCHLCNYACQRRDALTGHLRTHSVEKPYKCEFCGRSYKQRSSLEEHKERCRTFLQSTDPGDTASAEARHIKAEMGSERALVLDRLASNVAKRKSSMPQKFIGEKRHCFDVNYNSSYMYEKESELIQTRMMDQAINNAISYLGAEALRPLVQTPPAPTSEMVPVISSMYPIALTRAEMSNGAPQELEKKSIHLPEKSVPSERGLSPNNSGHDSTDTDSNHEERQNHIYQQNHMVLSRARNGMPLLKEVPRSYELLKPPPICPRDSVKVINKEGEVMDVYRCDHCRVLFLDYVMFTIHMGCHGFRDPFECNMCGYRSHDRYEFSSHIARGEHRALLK
T6 sequence (Q96SW2 whole entry): as the sequence (Q96SW2 whole entry) above
T6 sequence (Q16531 whole entry partner): as the sequence (Q16531 whole entry partner) above

GSPT1 = biological target: T7, GSPT1 (Homo sapiens, UniProt P15170+Q96SW2); test: Western-blot assay of substrate protein degradation in hPBMCs, GSPT1; type: cell-based; details: 24 hours of compound treatment, compounds tested at 50 nM and 500 nM (concentration of the table not stated)
T7 construct: endogenous in cells; host or cells: hPBMCs (Milecell Biotechnologies)
T7 sequence (P15170 whole entry): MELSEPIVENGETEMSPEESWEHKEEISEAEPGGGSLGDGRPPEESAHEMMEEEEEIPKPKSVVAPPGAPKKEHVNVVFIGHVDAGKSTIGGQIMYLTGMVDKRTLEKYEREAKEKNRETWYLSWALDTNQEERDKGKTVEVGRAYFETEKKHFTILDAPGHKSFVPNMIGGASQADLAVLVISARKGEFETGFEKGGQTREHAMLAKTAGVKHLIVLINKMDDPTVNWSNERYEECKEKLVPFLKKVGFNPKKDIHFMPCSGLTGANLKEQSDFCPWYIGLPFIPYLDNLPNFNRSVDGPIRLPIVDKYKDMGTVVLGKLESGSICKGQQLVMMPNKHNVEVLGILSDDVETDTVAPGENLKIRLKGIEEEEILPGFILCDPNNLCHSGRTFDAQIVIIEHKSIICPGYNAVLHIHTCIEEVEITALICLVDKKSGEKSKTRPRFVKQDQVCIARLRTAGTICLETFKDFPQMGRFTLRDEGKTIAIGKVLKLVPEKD
T7 sequence (Q96SW2 whole entry): as the sequence (Q96SW2 whole entry) above
T7 sequence (Q16531 whole entry partner): as the sequence (Q16531 whole entry partner) above

O=C1CCC(N2Cc3cc(CN4CCN(c5cnccn5)CC4)ccc3C2=O)C(=O)N1 (stereo not drawn) [GT-04483, 3-(1-oxo-5-((4-(pyrazin-2-yl)piperazin-1-yl)methyl)isoindolin-2-yl)piperidine-2,6-dione]
CK1a substrate protein remaining % (CK1α): A (0% ≤ substrate protein remaining % ≤ 80%) | IKZF 1 substrate protein remaining % (IKZF1): B (80%< substrate protein remaining %≤ 100%) | IC50 [1]: 500 to 1000 nM | Weel substrate protein remaining % (WEE1): A (0% ≤ substrate protein remaining % ≤ 80%) | IKZF2 substrate protein remaining % (IKZF2): A (0% ≤ substrate protein remaining % ≤ 80%) | IKZF3 substrate protein remaining % (IKZF3): B (80%< substrate protein remaining %≤ 100%) | GSPT1 substrate protein remaining % (GSPT1): A (0% ≤ substrate protein remaining % ≤ 80%)

O=C1CCC(N2Cc3cc(CN4CCN(c5ncccn5)CC4)ccc3C2=O)C(=O)N1 (stereo not drawn) [GT-04484, 3-(1-oxo-5-((4-(pyrimidin-2-yl)piperazin-1-yl)methyl)isoindolin-2-yl)piperidine-2,6-dione]
CK1a substrate protein remaining % (CK1α): A (0% ≤ substrate protein remaining % ≤ 80%) | IKZF 1 substrate protein remaining % (IKZF1): B (80%< substrate protein remaining %≤ 100%) | IC50 [1]: 500 to 1000 nM | Weel substrate protein remaining % (WEE1): A (0% ≤ substrate protein remaining % ≤ 80%) | IKZF2 substrate protein remaining % (IKZF2): A (0% ≤ substrate protein remaining % ≤ 80%) | IKZF3 substrate protein remaining % (IKZF3): B (80%< substrate protein remaining %≤ 100%) | GSPT1 substrate protein remaining % (GSPT1): A (0% ≤ substrate protein remaining % ≤ 80%)

O=C1CCC(N2Cc3cc(CN4CCN(c5ncncn5)CC4)ccc3C2=O)C(=O)N1 (stereo not drawn) [GT-04486, 3-(5-((4-(1,3,5-triazin-2-yl)piperazin-1-yl)methyl)-1-oxoisoindolin-2-yl)piperidine-2,6-dione]
CK1a substrate protein remaining % (CK1α): A (0% ≤ substrate protein remaining % ≤ 80%) | IKZF 1 substrate protein remaining % (IKZF1): A (0% ≤ substrate protein remaining % ≤ 80%) | IC50 [1]: 500 to 1000 nM | Weel substrate protein remaining % (WEE1): A (0% ≤ substrate protein remaining % ≤ 80%) | IKZF2 substrate protein remaining % (IKZF2): A (0% ≤ substrate protein remaining % ≤ 80%) | IKZF3 substrate protein remaining % (IKZF3): B (80%< substrate protein remaining %≤ 100%) | GSPT1 substrate protein remaining % (GSPT1): A (0% ≤ substrate protein remaining % ≤ 80%)

O=C1CCC(N2Cc3cc(CN4CCC(c5ccccc5C(F)(F)F)CC4)ccc3C2=O)C(=O)N1 (stereo not drawn) [GT-04488, 3-(1-oxo-5-((4-(2-(trifluoromethyl)phenyl)piperidin-1-yl)methyl)isoindolin-2-yl)piperidine-2,6-dione]
CK1a substrate protein remaining % (CK1α): A (0% ≤ substrate protein remaining % ≤ 80%) | IKZF 1 substrate protein remaining % (IKZF1): B (80%< substrate protein remaining %≤ 100%) | IC50 [1]: 500 to 1000 nM | Weel substrate protein remaining % (WEE1): B (80%< substrate protein remaining %≤ 100%) | IKZF2 substrate protein remaining % (IKZF2): A (0% ≤ substrate protein remaining % ≤ 80%) | IKZF3 substrate protein remaining % (IKZF3): B (80%< substrate protein remaining %≤ 100%) | GSPT1 substrate protein remaining % (GSPT1): A (0% ≤ substrate protein remaining % ≤ 80%)

Cc1cc(N2CCN(Cc3ccc4c(c3)CN(C3CCC(=O)NC3=O)C4=O)CC2)cc(C)n1 (stereo not drawn) [GT-04492, 3-(5-((4-(2,6-dimethylpyridin-4-yl)piperazin-1-yl)methyl)-1-oxoisoindolin-2-yl)piperidine-2,6-dione]
CK1a substrate protein remaining % (CK1α): A (0% ≤ substrate protein remaining % ≤ 80%) | IKZF 1 substrate protein remaining % (IKZF1): B (80%< substrate protein remaining %≤ 100%) | IC50 [1]: 500 to 1000 nM | Weel substrate protein remaining % (WEE1): B (80%< substrate protein remaining %≤ 100%) | IKZF2 substrate protein remaining % (IKZF2): B (80%< substrate protein remaining %≤ 100%) | IKZF3 substrate protein remaining % (IKZF3): B (80%< substrate protein remaining %≤ 100%) | GSPT1 substrate protein remaining % (GSPT1): A (0% ≤ substrate protein remaining % ≤ 80%)

O=C1CCC(N2Cc3cc(CN4CCN(c5c(F)c(F)nc(F)c5F)CC4)ccc3C2=O)C(=O)N1 (stereo not drawn) [GT-04499, 3-(1-oxo-5-((4-(perfluoropyridin-4-yl)piperazin-1-yl)methyl)isoindolin-2-yl)piperidine-2,6-dione]
CK1a substrate protein remaining % (CK1α): A (0% ≤ substrate protein remaining % ≤ 80%) | IKZF 1 substrate protein remaining % (IKZF1): A (0% ≤ substrate protein remaining % ≤ 80%) | IC50 [1]: 500 to 1000 nM | Weel substrate protein remaining % (WEE1): A (0% ≤ substrate protein remaining % ≤ 80%) | IKZF2 substrate protein remaining % (IKZF2): A (0% ≤ substrate protein remaining % ≤ 80%) | IKZF3 substrate protein remaining % (IKZF3): A (0% ≤ substrate protein remaining % ≤ 80%) | GSPT1 substrate protein remaining % (GSPT1): A (0% ≤ substrate protein remaining % ≤ 80%)

O=C1CCC(N2Cc3cc(CN4CCN(c5cc(Cl)nnc5Cl)CC4)ccc3C2=O)C(=O)N1 (stereo not drawn) [GT-04500, 3-(5-((4-(3,6-dichloropyridazin-4-yl)piperazin-1-yl)methyl)-1-oxoisoindolin-2-yl)piperidine-2,6-dione]
CK1a substrate protein remaining % (CK1α): A (0% ≤ substrate protein remaining % ≤ 80%) | IKZF 1 substrate protein remaining % (IKZF1): A (0% ≤ substrate protein remaining % ≤ 80%) | IC50 [1]: 500 to 1000 nM | Weel substrate protein remaining % (WEE1): A (0% ≤ substrate protein remaining % ≤ 80%) | IKZF2 substrate protein remaining % (IKZF2): A (0% ≤ substrate protein remaining % ≤ 80%) | IKZF3 substrate protein remaining % (IKZF3): A (0% ≤ substrate protein remaining % ≤ 80%) | GSPT1 substrate protein remaining % (GSPT1): A (0% ≤ substrate protein remaining % ≤ 80%)

O=C1CCC(N2Cc3cc(CN4CCN(c5ncnc(Cl)c5Cl)CC4)ccc3C2=O)C(=O)N1 (stereo not drawn) [GT-04501, 3-(5-((4-(5,6-dichloropyrimidin-4-yl)piperazin-1-yl)methyl)-1-oxoisoindolin-2-yl)piperidine-2,6-dione]
CK1a substrate protein remaining % (CK1α): A (0% ≤ substrate protein remaining % ≤ 80%) | IKZF 1 substrate protein remaining % (IKZF1): A (0% ≤ substrate protein remaining % ≤ 80%) | IC50 [1]: < 500 nM | Weel substrate protein remaining % (WEE1): A (0% ≤ substrate protein remaining % ≤ 80%) | IKZF2 substrate protein remaining % (IKZF2): A (0% ≤ substrate protein remaining % ≤ 80%) | IKZF3 substrate protein remaining % (IKZF3): A (0% ≤ substrate protein remaining % ≤ 80%) | GSPT1 substrate protein remaining % (GSPT1): A (0% ≤ substrate protein remaining % ≤ 80%)

O=C1CCC(N2Cc3cc(CN4CCN(c5cccnc5)CC4)ccc3C2=O)C(=O)N1 (stereo not drawn) [GT-04508, 3-(1-oxo-5-((4-(pyridin-3-yl)piperazin-1-yl)methyl)isoindolin-2-yl)piperidine-2,6-dione]
CK1a substrate protein remaining % (CK1α): B (80%< substrate protein remaining %≤ 100%) | IKZF 1 substrate protein remaining % (IKZF1): A (0% ≤ substrate protein remaining % ≤ 80%) | IC50 [1]: 500 to 1000 nM | Weel substrate protein remaining % (WEE1): A (0% ≤ substrate protein remaining % ≤ 80%) | IKZF2 substrate protein remaining % (IKZF2): A (0% ≤ substrate protein remaining % ≤ 80%) | IKZF3 substrate protein remaining % (IKZF3): A (0% ≤ substrate protein remaining % ≤ 80%) | GSPT1 substrate protein remaining % (GSPT1): A (0% ≤ substrate protein remaining % ≤ 80%)

O=C1CCC(N2Cc3c(CN4CCN(c5cccc(Cl)c5Cl)CC4)cccc3C2=O)C(=O)N1 (stereo not drawn) [GT-04528, 3-(4-((4-(2,3-dichlorophenyl)piperazin-1-yl)methyl)-1-oxoisoindolin-2-yl)piperidine-2,6-dione]
CK1a substrate protein remaining % (CK1α): B (80%< substrate protein remaining %≤ 100%) | IKZF 1 substrate protein remaining % (IKZF1): B (80%< substrate protein remaining %≤ 100%) | IC50 [1]: 500 to 1000 nM | Weel substrate protein remaining % (WEE1): A (0% ≤ substrate protein remaining % ≤ 80%) | IKZF2 substrate protein remaining % (IKZF2): B (80%< substrate protein remaining %≤ 100%) | IKZF3 substrate protein remaining % (IKZF3): B (80%< substrate protein remaining %≤ 100%) | GSPT1 substrate protein remaining % (GSPT1): B (80%< substrate protein remaining %≤ 100%)

O=C1CCC(N2Cc3cc(CN4CCN(c5ccc(Cl)nc5)CC4)ccc3C2=O)C(=O)N1 (stereo not drawn) [GT-04537, 3-(5-((4-(6-chloropyridin-3-yl)piperazin-1-yl)methyl)-1-oxoisoindolin-2-yl)piperidine-2,6-dione]
CK1a substrate protein remaining % (CK1α): A (0% ≤ substrate protein remaining % ≤ 80%) | IKZF 1 substrate protein remaining % (IKZF1): A (0% ≤ substrate protein remaining % ≤ 80%) | IC50 [1]: 500 to 1000 nM | Weel substrate protein remaining % (WEE1): A (0% ≤ substrate protein remaining % ≤ 80%) | IKZF2 substrate protein remaining % (IKZF2): A (0% ≤ substrate protein remaining % ≤ 80%) | IKZF3 substrate protein remaining % (IKZF3): A (0% ≤ substrate protein remaining % ≤ 80%) | GSPT1 substrate protein remaining % (GSPT1): A (0% ≤ substrate protein remaining % ≤ 80%)

Cc1cc(N2CCN(Cc3ccc4c(c3)CN(C3CCC(=O)NC3=O)C4=O)CC2)ccn1 (stereo not drawn) [GT-04541, 3-(5-((4-(2-methylpyridin-4-yl)piperazin-1-yl)methyl)-1-oxoisoindolin-2-yl)piperidine-2,6-dione]
CK1a substrate protein remaining % (CK1α): B (80%< substrate protein remaining %≤ 100%) | IKZF 1 substrate protein remaining % (IKZF1): A (0% ≤ substrate protein remaining % ≤ 80%) | IC50 [1]: 500 to 1000 nM | Weel substrate protein remaining % (WEE1): A (0% ≤ substrate protein remaining % ≤ 80%) | IKZF2 substrate protein remaining % (IKZF2): A (0% ≤ substrate protein remaining % ≤ 80%) | IKZF3 substrate protein remaining % (IKZF3): A (0% ≤ substrate protein remaining % ≤ 80%) | GSPT1 substrate protein remaining % (GSPT1): B (80%< substrate protein remaining %≤ 100%)
